Source: patent US7247634B2, “Rifamycin derivatives effective against drug-resistant microbes” (Cumbre Pharmaceuticals Inc., priority 2004, dated 2007)
Values after ≈ are worked out from the molar mass of the structure shown.

Legend:
Assay type in all cases: cell-based
[1] = tested on: Staphylococcus aureus EN1252a gyrA^S84L grlA^S80F; assay: microbe, parasite or virus in culture; conditions: read-out: Antimicrobial activity (MIC)
Procedure, shortened: (§1)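 MICs by NCCLS broth microdilution, incubation at 37 °C, in cation-adjusted Mueller-Hinton broth. Strains: rifampin-resistant S. aureus ATCC 29213 with rpoB D417Y or H418Y, and quinolone-resistant EN1252a carrying gyrA S84L plus grlA S80F.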

[2] = tested on: Staphylococcus aureus ATCC29213 rpoB^H418Y; assay: microbe, parasite or virus in culture; conditions: ATCC29213, read-out: Antimicrobial activity (MIC)
Procedure, shortened: as §1

[3] = tested on: Staphylococcus aureus ATCC29213 rpoB^D417Y; assay: microbe, parasite or virus in culture; conditions: ATCC29213, read-out: Antimicrobial activity (MIC)
Procedure, shortened: as §1

[4] = tested on: Escherichia coli ATCC25922; assay: MIC, microbroth dilution (NCCLS); conditions: rifS strain, Cation-Adjusted Mueller-Hinton Broth, 37° C., read-out: Antimicrobial activity (MIC)
[5] = tested on: Mycobacterium smegmatis ATCC700084; assay: MIC, microbroth dilution (NCCLS); conditions: Mycolicibacterium smegmatis, rifS strain, Middlebrook Broth plus ADC Enrichment, 37° C., read-out: Antimicrobial activity (MIC)
[6] = tested on: Streptococcus pyogenes ATCC19615; assay: MIC, microbroth dilution (NCCLS); conditions: rifS strain, THY Broth, 37° C., read-out: Antimicrobial activity (MIC)
[7] = tested on: Staphylococcus epidermidis ATCC12228; assay: MIC, microbroth dilution (NCCLS); conditions: rifS strain, Cation-Adjusted Mueller-Hinton Broth, 37° C., read-out: Antimicrobial activity (MIC)
[8] = tested on: Streptococcus pneumoniae ATCC6303; assay: MIC, microbroth dilution (NCCLS); conditions: rifS strain, THY Broth with 1 mg/mL catalase, 5% CO2, 37° C., read-out: Antimicrobial activity (MIC)
[9] = tested on: Staphylococcus aureus ATCC29213; assay: MIC, microbroth dilution (NCCLS); conditions: rifS strain, Cation-Adjusted Mueller-Hinton Broth, 37° C., read-out: Antimicrobial activity (MIC)
[10] = tested on: Enterococcus faecalis ATCC29212; assay: MIC, microbroth dilution (NCCLS); conditions: rifS strain, BHI Broth, 37° C., read-out: Antimicrobial activity (MIC)
[11] = tested on: Haemophilus influenzae ATCC10211; assay: MIC, microbroth dilution (NCCLS); conditions: rifS strain, BHI Broth with NAD and hematin, 37° C., read-out: Antimicrobial activity (MIC)

Row | Compound | MIC [1] [µg/mL] | MIC [2] [µg/mL] | MIC [3] [µg/mL] | MIC [4] [µg/mL] | MIC [5] [µg/mL] | MIC [6] [µg/mL] | MIC [7] [µg/mL] | MIC [8] [µg/mL] | MIC [9] [µg/mL] | MIC [10] [µg/mL] | MIC [11] [µg/mL]
1 | COc1c(N2CCCC(NC(=O)C3CCN(C4=C5NC(=O)/C(C)=C\C=C\[C@H](C)[C@H](O)[C@@H](C)[C@@H](O)[C@@H](C)[C@H](OC(C)=O)[C@H](C)[C@@H](OC)/C=C/O[C@@]6(C)Oc7c(C)c(O)c(c(c7C6=O)C4=O)C5=O)CC3)C2)c(F)cc2c(=O)c(C(=O)O)cn(C3CC3)c12 (mixture of isomers) [Example 52] | 0.004 to 0.5 (≈ 0.00339 to 0.424 µM) | 0.06 to 16 (≈ 0.0508 to 13.6 µM) | 0.06 to 32 (≈ 0.0508 to 27.1 µM) | 0.125 to 8 (≈ 0.106 to 6.78 µM) | 0.5 to 64 | 0.008 to 0.063 (≈ 0.00678 to 0.0534 µM) | 0.008 to 0.063 (≈ 0.00678 to 0.0534 µM) | 0.008 to 0.125 (≈ 0.00678 to 0.106 µM) | 0.004 to 0.5 (≈ 0.00339 to 0.424 µM) | 2 to 32 (≈ 1.69 to 27.1 µM) | 0.125 to 2 (≈ 0.106 to 1.69 µM)
2 | CO[C@H]1/C=C/O[C@@]2(C)Oc3c(C)c(O)c4c(c3C2=O)C(=O)C(N2CCN(C3CCN(c5nc6c(cc5F)c(=O)c(C(=O)O)cn6-c5ccc(F)cc5F)C3)CC2)=C(NC(=O)/C(C)=C\C=C\[C@H](C)[C@H](O)[C@@H](C)[C@@H](O)[C@@H](C)[C@H](OC(C)=O)[C@@H]1C)C4=O (mixture of isomers) [Example 54] | 0.004 to 0.5 (≈ 0.00343 to 0.428 µM) | 0.06 to 16 (≈ 0.0514 to 13.7 µM) | 0.06 to 32 (≈ 0.0514 to 27.4 µM) | 0.125 to 8 (≈ 0.107 to 6.85 µM) | 0.5 to 64 | 0.008 to 0.063 (≈ 0.00685 to 0.054 µM) | 0.008 to 0.063 (≈ 0.00685 to 0.054 µM) | 0.008 to 0.125 (≈ 0.00685 to 0.107 µM) | 0.004 to 0.5 (≈ 0.00343 to 0.428 µM) | 2 to 32 (≈ 1.71 to 27.4 µM) | 0.125 to 2 (≈ 0.107 to 1.71 µM)
3 | COc1c(N2CCC(C3(N4CCN(C5=C6NC(=O)/C(C)=C\C=C\[C@H](C)[C@H](O)[C@@H](C)[C@@H](O)[C@@H](C)[C@H](OC(C)=O)[C@H](C)[C@@H](OC)/C=C/O[C@@]7(C)Oc8c(C)c(O)c(c(c8C7=O)C5=O)C6=O)CC4)CC3)C2)c(F)cc2c(=O)c(C(=O)O)cn(C3CC3)c12 (mixture of isomers) [Example 56, (R/S)-3-{4-[1-(3-Carboxy-1-cyclopropyl-6-fluoro-8-methoxy-4-oxo-1,4-dihydroquinoline-7-yl)-pyrrolidin-3-yl-cyclopropyl]-piperazin-1-yl}-rifamycin S] | 0.004 to 0.5 (≈ 0.00344 to 0.429 µM) | 0.06 to 16 (≈ 0.0515 to 13.7 µM) | 0.06 to 32 (≈ 0.0515 to 27.5 µM) | 0.125 to 8 (≈ 0.107 to 6.87 µM) | 0.5 to 64 | 0.008 to 0.063 (≈ 0.00687 to 0.0541 µM) | 0.008 to 0.063 (≈ 0.00687 to 0.0541 µM) | 0.008 to 0.125 (≈ 0.00687 to 0.107 µM) | 0.004 to 0.5 (≈ 0.00344 to 0.429 µM) | 2 to 32 (≈ 1.72 to 27.5 µM) | 0.125 to 2 (≈ 0.107 to 1.72 µM)
4 | CO[C@H]1/C=C/O[C@@]2(C)Oc3c(C)c(O)c4c(c3C2=O)C(=O)C(N2CCC(N(C)C3(C5CCN(c6nc7c(cc6F)c(=O)c(C(=O)O)cn7-c6ccc(F)cc6F)C5)CC3)CC2)=C(NC(=O)/C(C)=C\C=C\[C@H](C)[C@H](O)[C@@H](C)[C@@H](O)[C@@H](C)[C@H](OC(C)=O)[C@@H]1C)C4=O (mixture of isomers) [Example 58] | 0.004 to 0.5 (≈ 0.00324 to 0.405 µM) | 0.06 to 16 (≈ 0.0486 to 13 µM) | 0.06 to 32 (≈ 0.0486 to 25.9 µM) | 0.125 to 8 (≈ 0.101 to 6.48 µM) | 0.5 to 64 | 0.008 to 0.063 (≈ 0.00648 to 0.051 µM) | 0.008 to 0.063 (≈ 0.00648 to 0.051 µM) | 0.008 to 0.125 (≈ 0.00648 to 0.101 µM) | 0.004 to 0.5 (≈ 0.00324 to 0.405 µM) | 2 to 32 (≈ 1.62 to 25.9 µM) | 0.125 to 2 (≈ 0.101 to 1.62 µM)
5 | CON=C1CN(c2nc3c(cc2F)c(=O)c(C(=O)O)cn3C2CC2)CC1CNC1CCN(C2=C3NC(=O)/C(C)=C\C=C\[C@H](C)[C@H](O)[C@@H](C)[C@@H](O)[C@@H](C)[C@H](OC(C)=O)[C@H](C)[C@@H](OC)/C=C/O[C@@]4(C)Oc5c(C)c(O)c(c(c5C4=O)C2=O)C3=O)CC1 (mixture of isomers) [Example 59, (R/S)-3-{4-[1-(3-Carboxy-1-cyclopropyl-6-fluoro-4-oxo-1,4-dihydro-1-[1,8]naphthyridine-7-yl)-3-methoxyiminopyrrolidin-4-ylmethylamino]-piperidin-1-yl}rifamycin S] | 0.004 to 0.5 (≈ 0.00343 to 0.429 µM) | 0.06 to 16 (≈ 0.0514 to 13.7 µM) | 0.06 to 32 (≈ 0.0514 to 27.4 µM) | 0.125 to 8 (≈ 0.107 to 6.86 µM) | 0.5 to 64 | 0.008 to 0.063 (≈ 0.00686 to 0.054 µM) | 0.008 to 0.063 (≈ 0.00686 to 0.054 µM) | 0.008 to 0.125 (≈ 0.00686 to 0.107 µM) | 0.004 to 0.5 (≈ 0.00343 to 0.429 µM) | 2 to 32 (≈ 1.71 to 27.4 µM) | 0.125 to 2 (≈ 0.107 to 1.71 µM)
6 | CO[C@H]1/C=C/O[C@@]2(C)Oc3c(C)c(O)c4c(c3C2=O)C(=O)C(N2CCN(c3cc5c(cc3F)c(=O)c(C(=O)O)cn5C3CC3)CC2)=C(NC(=O)/C(C)=C\C=C\[C@H](C)[C@H](O)[C@@H](C)[C@@H](O)[C@@H](C)[C@H](OC(C)=O)[C@@H]1C)C4=O [Example 4, 3-[4-(3-Carboxy-1-cyclopropyl-6-fluoro-4-oxo-1,4-dihydroquinolin-7-yl)piperazin-1-yl]rifamycin S] | 0.004 to 0.5 (≈ 0.0039 to 0.488 µM) | 0.06 to 16 (≈ 0.0585 to 15.6 µM) | 0.06 to 32 (≈ 0.0585 to 31.2 µM) | 0.125 to 8 (≈ 0.122 to 7.8 µM) | 0.5 to 64 | 0.008 to 0.063 (≈ 0.0078 to 0.0615 µM) | 0.008 to 0.063 (≈ 0.0078 to 0.0615 µM) | 0.008 to 0.125 (≈ 0.0078 to 0.122 µM) | 0.004 to 0.5 (≈ 0.0039 to 0.488 µM) | 2 to 32 (≈ 1.95 to 31.2 µM) | 0.125 to 2 (≈ 0.122 to 1.95 µM)
7 | CO[C@H]1/C=C/O[C@@]2(C)Oc3c(C)c(O)c4c(c3C2=O)C(=O)C(N2CCN(c3nc5c(cc3F)c(=O)c(C(=O)O)cn5-c3ccc(F)cc3F)CC2)=C(NC(=O)/C(C)=C\C=C\[C@H](C)[C@H](O)[C@@H](C)[C@@H](O)[C@@H](C)[C@H](OC(C)=O)[C@@H]1C)C4=O [Example 5, 3-[4-(3-Carboxy-1-(2,4-difluorophenyl)-6-fluoro-4-oxo-1,4-dihydronaphthyridin-7-yl)piperazin-1-yl]rifamycin S] | 0.004 to 0.5 (≈ 0.00364 to 0.455 µM) | 0.06 to 16 (≈ 0.0546 to 14.6 µM) | 0.06 to 32 (≈ 0.0546 to 29.1 µM) | 0.125 to 8 (≈ 0.114 to 7.29 µM) | 0.5 to 64 | 0.008 to 0.063 (≈ 0.00729 to 0.0574 µM) | 0.008 to 0.063 (≈ 0.00729 to 0.0574 µM) | 0.008 to 0.125 (≈ 0.00729 to 0.114 µM) | 0.004 to 0.5 (≈ 0.00364 to 0.455 µM) | 2 to 32 (≈ 1.82 to 29.1 µM) | 0.125 to 2 (≈ 0.114 to 1.82 µM)
8 | CO[C@H]1/C=C/O[C@@]2(C)Oc3c(C)c(O)c4c(c3C2=O)C(=O)C(N2CCC(CCCC3CCN(c5nc6c(cc5F)c(=O)c(C(=O)O)cn6-c5ccc(F)cc5F)CC3)CC2)=C(NC(=O)/C(C)=C\C=C\[C@H](C)[C@H](O)[C@@H](C)[C@@H](O)[C@@H](C)[C@H](OC(C)=O)[C@@H]1C)C4=O [Example 6, 3-[4-[3-[1-[3-Carboxy-1-(2,4-difluorophenyl)-6-fluoro-4-oxo-1,4-dihydronaphthyridin-7-yl]piperidin-4-yl]propyl]piperidin-1-yl]rifamycin S] | 0.004 to 0.5 (≈ 0.00327 to 0.409 µM) | 0.06 to 16 (≈ 0.0491 to 13.1 µM) | 0.06 to 32 (≈ 0.0491 to 26.2 µM) | 0.125 to 8 (≈ 0.102 to 6.54 µM) | 0.5 to 64 | 0.008 to 0.063 (≈ 0.00654 to 0.0515 µM) | 0.008 to 0.063 (≈ 0.00654 to 0.0515 µM) | 0.008 to 0.125 (≈ 0.00654 to 0.102 µM) | 0.004 to 0.5 (≈ 0.00327 to 0.409 µM) | 2 to 32 (≈ 1.64 to 26.2 µM) | 0.125 to 2 (≈ 0.102 to 1.64 µM)
